Experimental data: ChEMBL document CHEMBL2440041, “5-Deazaflavin derivatives as inhibitors of p53 ubiquitination by HDM2” (Bioorg Med Chem, 2013)

Biological target: E3 ubiquitin-protein ligase Mdm2 (Homo sapiens, UniProt Q00987)
Sequence (Q00987 whole entry): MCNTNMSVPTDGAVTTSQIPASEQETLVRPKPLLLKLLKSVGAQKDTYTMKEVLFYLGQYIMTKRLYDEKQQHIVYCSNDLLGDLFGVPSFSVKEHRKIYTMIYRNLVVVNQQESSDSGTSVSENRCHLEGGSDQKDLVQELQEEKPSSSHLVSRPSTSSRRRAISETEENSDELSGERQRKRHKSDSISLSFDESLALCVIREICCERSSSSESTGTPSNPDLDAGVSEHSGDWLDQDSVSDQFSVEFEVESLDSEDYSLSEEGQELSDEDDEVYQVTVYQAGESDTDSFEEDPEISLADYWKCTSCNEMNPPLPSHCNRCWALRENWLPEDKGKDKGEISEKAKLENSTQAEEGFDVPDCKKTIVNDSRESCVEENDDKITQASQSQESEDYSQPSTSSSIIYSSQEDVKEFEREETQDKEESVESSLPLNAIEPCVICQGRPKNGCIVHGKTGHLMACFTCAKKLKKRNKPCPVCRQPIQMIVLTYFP
Description: Inhibition of GST-tagged HDM2 (unknown origin) assessed as p53 ubiquitination by Western blot analysis

Structure (SMILES) | IC50 [µM]
O=c1nc2n(-c3cccc(Cl)c3)c3c(Cl)cccc3cc-2c(=O)[nH]1 | > 100
O=c1nc2n(-c3ccc(Cl)cc3)c3c([N+](=O)[O-])cccc3cc-2c(=O)[nH]1 | > 50
O=c1nc2n(-c3ccccc3F)c3ccc(Cl)cc3cc-2c(=O)[nH]1 | > 100
O=c1nc2n(-c3ccccc3F)c3cc(C(F)(F)F)ccc3cc-2c(=O)[nH]1 | > 100
O=c1nc2n(-c3ccccc3)c3c(Br)cccc3cc-2c(=O)[nH]1 | > 100
Cc1ccc2cc3c(=O)[nH]c(=O)nc-3n(-c3ccc(Cl)cc3)c2c1 | > 100
O=c1nc2n(-c3ccc(Cl)cc3)c3cccc(C(F)(F)F)c3cc-2c(=O)[nH]1 | > 100
O=c1nc2n(-c3ccc(Cl)cc3)c3ccc([N+](=O)[O-])cc3cc-2c(=O)[nH]1 | > 75
O=c1nc2n(-c3ccc(Cl)cc3)c3ccc(C(F)(F)F)cc3cc-2c(=O)[nH]1 | > 100
O=c1nc2n(-c3ccc(F)cc3)c3c(C(F)(F)F)cccc3cc-2c(=O)[nH]1 | 13.1
O=c1nc2n(-c3ccc(Cl)cc3)c3cc(C(F)(F)F)ccc3cc-2c(=O)[nH]1 | > 100
O=c1nc2n(Cc3ccccc3)c3c(C(F)(F)F)cccc3cc-2c(=O)[nH]1 | > 100
O=c1nc2n(-c3ccccc3F)c3c([N+](=O)[O-])cccc3cc-2c(=O)[nH]1 | > 100
O=c1nc2n(-c3ccccc3)c3c(Cl)cccc3cc-2c(=O)[nH]1 | > 100
O=c1nc2n(-c3ccc(Cl)cc3)c3cccc(Cl)c3cc-2c(=O)[nH]1 | > 100
O=c1nc2n(-c3ccccc3F)c3c(C(F)(F)F)cccc3cc-2c(=O)[nH]1 | 19.6
O=c1nc2n(-c3cccc(F)c3)c3c(Cl)cccc3cc-2c(=O)[nH]1 | > 100
